Experimental data from US20160128338A1, “COMPOSITION AND METHODS FOR IMPROVED TURF HEALTH” (Valent U.S.A., Corporation, priority 2014, published 2016).

Tests used:
[1] = system: Dollar spot (Sclerotinia homoeocarpa); assay: Dollar spot on creeping bentgrass fairways, field plots (% damage); type: in vivo; conditions: Plot 2, Metconazole 0.14 oz ai/1000 sq ft
Description: (§1) In order to determine the efficacy of combinations of metconazole and Myrothecium verucaria fermentation solids and solubles, numerous treatments were applied to plots in an area of turf grass. Specifically, the plots had established creeping bentgrass growing. No weed infestation was observed. Each plot was 30 square feet and the treatments were done in four replications. A randomized control was included in each block. The plots were no-till golf fairways. The treatments were applied during times of heat stress and also during times when no heat stress was present. The treatment solutions were prepared by pouring the liquid and dispersible granules in water and mixing. Treatments were applied to the turf grass at a volume of 2 gallons (256 liquid ounces)/1000 ft^2 with a CO2 backpack sprayer at 34 psi with a ground speed of 1 mph. The plots received six applications on 22 May, 6 June, 19 June, 4 July, 17 July, and 14 August. The turf grass was evaluated approximately every 7 days. Effect of Metconazole and Myrothecium verucaria fermentation solids and solubles on Dollar Spot on Creeping Bentgrass Fairways (% Damage)” and “Table 2. Effect of Metconazole and Myrothecium verucaria fermentation solids and solubles on Dollar Spot on Creeping Bentgrass Fairways (Quality Rating Based on a Scale of 1-9)”.

creeping bentgrass = assay: Turf quality rating of creeping bentgrass fairways with dollar spot, field plots (scale 1-9); type: in vivo, creeping bentgrass (Agrostis stolonifera); conditions: Plot 2, Metconazole 0.14 oz ai/1000 sq ft
Description: as §1

**Q.** How did the “Dollar Spot % Damage” value ([1]; 3 July) turn out when `CC1(C)CCC(Cc2ccc(Cl)cc2)C1(O)Cn1cncn1` (centres unmarked) [Metconazole, 5-[(4-chlorophenyl)methyl]-2,2-dimetyl-1-(1 H-1,2,4-triazol-1-ylmethyl)cyclopentanol] was run?
**A.** 16.3%

**Q.** And the “Dollar Spot % Damage” value ([1]; 6 June)?
**A.** 8.8%

**Q.** And the “Dollar Spot % Damage” value ([1]; 7 Aug)?
**A.** 36.3%

**Q.** And the “Dollar Spot % Damage” value ([1]; 10 July)?
**A.** 32.5%

**Q.** And the “Dollar Spot % Damage” value ([1]; 14 Aug)?
**A.** 55.0%

**Q.** What about the “Dollar Spot % Damage” value ([1]; 15 June) of the same compound?
**A.** 7.5%

**Q.** What about the “Dollar Spot % Damage” value ([1]; 17 July) of the same compound?
**A.** 36.3%

**Q.** And the “Dollar Spot % Damage” value ([1]; 21 Aug)?
**A.** 37.5%

**Q.** And the “Dollar Spot % Damage” value ([1]; 22 June)?
**A.** 10.0%

**Q.** And the “Dollar Spot % Damage” value ([1]; 25 July)?
**A.** 24.3%

**Q.** And the “Dollar Spot % Damage” value ([1]; 26 June)?
**A.** 11.3%

**Q.** What about the “Dollar Spot % Damage” value ([1]; 31 July) of the same compound?
**A.** 31.3%

**Q.** What about the “Quality Rating Based on a Scale of 1-9” value (creeping bentgrass; 3 July) of the same compound?
**A.** 4.5

**Q.** And the “Quality Rating Based on a Scale of 1-9” value (creeping bentgrass; 7 Aug)?
**A.** 4.8

**Q.** And the “Quality Rating Based on a Scale of 1-9” value (creeping bentgrass; 10 July)?
**A.** 3.8

**Q.** And the “Quality Rating Based on a Scale of 1-9” value (creeping bentgrass; 14 Aug)?
**A.** 4.0

**Q.** What about the “Quality Rating Based on a Scale of 1-9” value (creeping bentgrass; 15 June) of the same compound?
**A.** 6.0

**Q.** What about the “Quality Rating Based on a Scale of 1-9” value (creeping bentgrass; 17 July) of the same compound?
**A.** 3.5

**Q.** What about the “Quality Rating Based on a Scale of 1-9” value (creeping bentgrass; 21 Aug) of the same compound?
**A.** 4.3

**Q.** What about the “Quality Rating Based on a Scale of 1-9” value (creeping bentgrass; 22 June) of the same compound?
**A.** 5.5

**Q.** And the “Quality Rating Based on a Scale of 1-9” value (creeping bentgrass; 25 July)?
**A.** 4.8

**Q.** What about the “Quality Rating Based on a Scale of 1-9” value (creeping bentgrass; 26 June) of the same compound?
**A.** 5.5

**Q.** And the “Quality Rating Based on a Scale of 1-9” value (creeping bentgrass; 31 July)?
**A.** 4.8
